Reference: patent US5075307A, “Paraherquamide and dihydroparaherquamide as antihelminthic agents” (Merck & Co., Inc., priority 1987, dated 1991)

How the values were obtained:
Cooperia curticei = assay: Anthelmintic activity, single oral dose in experimentally infected sheep: residual worm burden vs untreated control; assay type: in vivo; details: 8 days after treatment
Method: (§1) Four "Parasite-free" sheep were exposed to infection with infective L3 of H. contortus, O. circumcincta, T. axei, T. colubriformis, C. curticei, C. oncophora, and Oe. columbianum. Twenty-four days after the last oral dose of infective larvae, when the infections were patent, three of the sheep were randomly assigned to treatment with either 6, 3 or 1 mg/kg body weight of paraherquamide as a single oral dose. The fourth sheep was maintained as an untreated control. All treatments were administered as solutions at a volume of 0.2 ml/kg P.O.: 6 mg/kg as a solution containing 30 mg/ml; 3 mg/kg as a solution containing 15 mg/ml; 1 mg/kg as a solution containing 5 mg/ml. The vehicle used was a mixture of dimethylsulfoxide: propylene glycol:miglyol (1.5:5:3.5).
(§2) Eight days following treatment the treated and control sheep were sacrificed and their residual worm burdens were recovered and identified using standard procedures. The worm burdens of the treated sheep were compared with that of the untreated control and the evaluations are tabulated as Table 1.

Cooperia oncophora = assay: as above; assay type: in vivo; details: 8 days after treatment
Method: as §1, §2

Cooperia spp. = assay: as above; assay type: in vivo; details: 8 days after treatment
Method: as §1, §2

[1] = tested on: Haemonchus contortus (benzimidazole resistant isolate); assay: as above; assay type: in vivo; details: 8 days after treatment
Method: as §1, §2

[2] = tested on: Oesophagostomum columbianum; assay: as above; assay type: in vivo; details: 8 days after treatment, control worm burden 7
Method: as §1, §2

Ostertagia circumcincta = assay: as above; assay type: in vivo; details: 8 days after treatment; for Efficacy, Ostertagia circumcincta L4: L4 stage; for Efficacy, Ostertagia circumcincta, Adult: adult stage
Method: as §1, §2

Trichostrongylus axei = assay: as above; assay type: in vivo; details: 8 days after treatment
Method: as §1, §2

[3] = tested on: Trichostrongylus colubriformis (benzimidazole resistant isolate); assay: as above; assay type: in vivo; details: 8 days after treatment
Method: as §1, §2

[4] = tested on: H. contortus, O. circumcincta, T. axei, T. colubriformis, C. curticei, C. oncophora, and Oe. columbianum; assay: Fecal worm egg counts of treated infected sheep; assay type: in vivo; details: 3 treated sheep (6, 3 or 1 mg/kg P.O. single dose), four days following treatment, from 4,000-20,000 EPG
Method: as §1

[5] = tested on: Dermacentor albipictus larvae; assay: Tick larvae immersion test; details: same suspension of crude extract as Example 13, 2 ml whole broth equivalent, immersed 10 minutes
Method: The same suspension used in Example 13 was used at a concentration of 2 ml whole broth equivalent to screen for activity against tick larvae. For this test Dermacentor albipictus larvae were immersed in 2 ml whole broth equivalent Paraherquamide for 10 minutes. The liquid was then removed with vacuum retaining the ticks on drug-impregnated filter paper.

Solubility = assay type: physicochemical

CN1C(=O)C23CC4C1(CN2CCC3(C)O)CC1(C(=O)Nc2c1ccc1c2OC=CC(C)(C)O1)C4(C)C (stereo not shown) [Paraherquamide]
Efficacy, Cooperia curticei (Cooperia curticei; 1.0 mg/kg P.O. single dose): 3 (≥91% effective)
Efficacy, Cooperia curticei (Cooperia curticei; 3.0 mg/kg P.O. single dose): 3 (≥91% effective)
Efficacy, Cooperia curticei (Cooperia curticei; 6.0 mg/kg P.O. single dose): 3 (≥91% effective)
Efficacy, Cooperia oncophora (Cooperia oncophora; 1.0 mg/kg P.O. single dose): 3 (≥91% effective)
Efficacy, Cooperia oncophora (Cooperia oncophora; 3.0 mg/kg P.O. single dose): 3 (≥91% effective)
Efficacy, Cooperia oncophora (Cooperia oncophora; 6.0 mg/kg P.O. single dose): 3 (≥91% effective)
Efficacy, Cooperia spp. (Cooperia spp.; 1.0 mg/kg P.O. single dose): 3 (≥91% effective)
Efficacy, Cooperia spp. (Cooperia spp.; 3.0 mg/kg P.O. single dose): 3 (≥91% effective)
Efficacy, Cooperia spp. (Cooperia spp.; 6.0 mg/kg P.O. single dose): 3 (≥91% effective)
Efficacy, Haemonchus contortus ([1]; 1.0 mg/kg P.O. single dose): 3 (≥91% effective)
Efficacy, Haemonchus contortus ([1]; 3.0 mg/kg P.O. single dose): 3 (≥91% effective)
Efficacy, Haemonchus contortus ([1]; 6.0 mg/kg P.O. single dose): 3 (≥91% effective)
Efficacy, Oesophagostomum columbianum ([2]; 1.0 mg/kg P.O. single dose): 0 (0-50% effective)
Efficacy, Oesophagostomum columbianum ([2]; 3.0 mg/kg P.O. single dose): 3 (≥91% effective)
Efficacy, Oesophagostomum columbianum ([2]; 6.0 mg/kg P.O. single dose): 3 (≥91% effective)
Efficacy, Ostertagia circumcincta L4 (Ostertagia circumcincta; 1.0 mg/kg P.O. single dose): 2 (76-90% effective)
Efficacy, Ostertagia circumcincta L4 (Ostertagia circumcincta; 3.0 mg/kg P.O. single dose): 3 (≥91% effective)
Efficacy, Ostertagia circumcincta L4 (Ostertagia circumcincta; 6.0 mg/kg P.O. single dose): 3 (≥91% effective)
Efficacy, Ostertagia circumcincta, Adult (Ostertagia circumcincta; 1.0 mg/kg P.O. single dose): 3 (≥91% effective)
Efficacy, Ostertagia circumcincta, Adult (Ostertagia circumcincta; 3.0 mg/kg P.O. single dose): 3 (≥91% effective)
Efficacy, Ostertagia circumcincta, Adult (Ostertagia circumcincta; 6.0 mg/kg P.O. single dose): 2 (76-90% effective)
Efficacy, Trichostrongylus axei (Trichostrongylus axei; 1.0 mg/kg P.O. single dose): 3 (≥91% effective)
Efficacy, Trichostrongylus axei (Trichostrongylus axei; 3.0 mg/kg P.O. single dose): 3 (≥91% effective)
Efficacy, Trichostrongylus axei (Trichostrongylus axei; 6.0 mg/kg P.O. single dose): 3 (≥91% effective)
Efficacy, Trichostrongylus colubriformis ([3]; 1.0 mg/kg P.O. single dose): 3 (≥91% effective)
Efficacy, Trichostrongylus colubriformis ([3]; 3.0 mg/kg P.O. single dose): 3 (≥91% effective)
Efficacy, Trichostrongylus colubriformis ([3]; 6.0 mg/kg P.O. single dose): 3 (≥91% effective)
fecal worm egg counts [4]: barely detectable or undetectable level
activity against tick larvae [5]: rapidly and completely active
solubility in organic solvents (Solubility; organic solvents): soluble
solubility in water (Solubility; water): slight solubility
